According to patent publication US20200172530A1, “Small Molecule Sensitization of BAX Activation for Induction of Cell Death” (Dana-Farber Cancer Institute, Inc., priority 2017, published 2020):

Tests used:
Dynamic light scattering = assay type: physicochemical; conditions: 20 mM potassium phosphate buffer, pH 6.2
Method: Samples were measured at room temperature on a DynaPro-99 instrument with a 90° detector angle using a 10 second acquisition time per measurement. Compounds were diluted from a 100 mM stock in 20 mM potassium phosphate buffer, pH 6.2 with 1% DMSO final concentration.

[1] = NMR-based detection of small molecule aggregators; assay type: physicochemical; conditions: 20 mM potassium phosphate buffer, pH 6.2, 10% D2O
Method: To detect line broadening, standard ^1H-NMR spectra were acquired. T2 decay curves were generated by measuring the CPMG NMR spectra of the molecules, performed as described above. The number of echo cycles corresponds to the decay time. The intensity of the aromatic peaks at the indicated decay times were measured and normalized to a maximum intensity of 1 at the 10 ms decay time. The curves were fitted to a one phase decay model using Prism software (Graphpad). Excitation sculpting was used for solvent suppression. Samples for both analyses were prepared in 20 mM potassium phosphate buffer, pH 6.2, 10% (v/v) D2O. Results of these measurements are described in FIGS. 12-13.

BAX = molecular target: T1, BAX (Homo sapiens, UniProt Q07812); assay: Liposomal release assay (ANTS/DPX); assay type: biochemical
T1 construct: Recombinant, full-length BAX was expressed in BL21 (DE3) E. coli using the pTYB1 vector; made in house; host or cells: E. coli BL21 (DE3)
T1 sequence (Q07812 whole entry): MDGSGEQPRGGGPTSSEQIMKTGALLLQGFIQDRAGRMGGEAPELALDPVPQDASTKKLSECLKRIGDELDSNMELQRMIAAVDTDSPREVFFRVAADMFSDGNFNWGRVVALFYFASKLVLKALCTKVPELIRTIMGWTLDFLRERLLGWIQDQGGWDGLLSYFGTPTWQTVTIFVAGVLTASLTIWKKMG
Method: Briefly, a lipid mixture containing a 48:28:10:10:4 molar ratio of phosphatidylcholine, phosphatidylethanolamine, phosphatidylinositol, dioleoyl phosphatidylserine, and tetraoleolyl cardiolipin (Avanti Polar Lipids) was generated in chloroform. Lipid films were formed by evaporation of solvent, initially under nitrogen gas and then by overnight vacuum, followed by storage at −80° C. under nitrogen. […] Liposomes were formed by 5 freeze/thaw cycles followed by extrusion through a 100 nm polycarbonate membrane and purified using a Sepharose CL-2B size exclusion column. […] ANTS/DPX release was monitored over time at room temperature in a spectrofluorometer (Tecan Infinite M1000) using an excitation wavelength of 355 nm, an emission wavelength of 540 nm, and a bandwidth of 20 nm. Maximal release was determined by the addition of Triton X-100 to a final concentration of 0.2% (v/v). Percent release was calculated according to Equation 1 shown below, where F is the observed release, and F0 and F100 are baseline and maximal fluorescence, respectively.
First, baseline fluorescence with liposomes and compound alone was read, followed by the addition of BAX to evaluate for direct activation; then, BIM SAHBA2 was added to this mixture and the effect of the combination monitored, and compared with the triggering activity of BIM SAHBA2 and BAX in the absence of compound.

[2] = molecular target: T2, recombinant, full length BAX (Homo sapiens, UniProt Q07812); assay: Fluorescence polarization assay (direct and competitive); assay type: binding; conditions: FITC-peptide 25 nM, BAX 250 nM
T2 construct: made in house; host or cells: E. coli BL21 (DE3)
T2 sequence (Q07812 whole entry): as above
Method: FITC-peptide (25 nM) was incubated with a serial dilution of recombinant, full length BAX in binding buffer (20 mM Potassium phosphate, pH 6.2). For competitive FP, FITC-peptide (25 nM) was mixed with a fixed concentration of BAX (250 nM) and incubated with a serial dilution of acetylated peptide or a compound described herein. Fluorescence polarization was measured at equilibrium using a SpectraMax M5 microplate reader. Nonlinear regression analysis of dose-response curves was performed using Prism software 7 (GraphPad).

Row | maximal BAX-mediated liposomal release (BAX; BIM SAHBA2 alone with BAX) | competition with FITC-BIM SAHBA2 for BAX interaction [2] | line broadening in 1H-NMR spectrum (aggregation) [1] | Compound | light scattering (aggregation in solution) (Dynamic light scattering) | T2 decay (aggregation) [1] | direct BAX activation in liposomal release (BAX; single agent with BAX)
1 | – | – | – | O=C1C(I)=CC(=C(c2cc(I)c(O)c(I)c2)c2ccccc2C(=O)O)C=C1I [I4PTH] | dose-dependent increase in light scattering | – | –
2 | – | – | – | Nc1ccc(Nc2ccccc2)cc1 [4-ADPA] | dose-dependent increase in light scattering | rapid T2 decay | –
3 | 50% | dose-responsively competed | – | BIM SAHBA2: stapled BIM BH3 helix (aa 145-164), Ac-EIWIAQELRXIGDXFNAYYA-CONH2, X=stapling amino acid; direct BAX activator positive control | – | – | induced time-responsive liposomal release
4 | – | – | does not exhibit line broadening | Oc1ccc(Oc2ccccc2)cc1 [BIF-44] | does not aggregate in solution | does not exhibit rapid or dose dependent decrease in T2 decay | –
